{"source": "patent US12281329B2", "about": "“Compositions and methods for immune cell modulation in adoptive immunotherapies” (Fate Therapeutics, Inc., priority 2016, dated 2025)", "key": {"K562 cells": {"tested_on": "K562 cells", "test": "NK cell cytotoxicity assay, K562 target cells", "format": "cell-based", "details": "1 μM STING agonist added to 7 day 10 ng/mL IL-15 + 5 μM CHIR99021 culture; 4 hours", "description": "(§1) NK Cell Cytotoxicity Assay: Cytotoxicity was determined using a flow cytometry based method based on a previously published method (Kim, et al. J Immunol Methods. 2007 Aug. 31; 325(1-2): 51-66). NK cells were co-cultured with e450-proliferation dye-labelled targets for 4 hours. CellEvent™ Caspase-3/7 Green Flow Cytometry Assay Kit (Lifer Technologies) was used to assay for cell death among target cells, and samples were read on a BD LSRFortessa cytometer. Killing of SKOV-3 targets was quantified using the Incucyte Zoom instrument. SKOV-3 cells were transiently transduced with NucLight-Red BacMam reagent (Essen Biosciences) and co-cultured with the indicated NK cell populations for 74 hours, with images taken on two hour intervals. Caspase 3/7 activity was monitored to indicate target cells undergoing apoptosis using the CellEvent™ Caspase-3/7 Green Detection Reagent. The number of target cells was normalized to SKOV-3 cells cultured alone, and targets undergoing apoptosis were quantified based on caspase 3/7 activity.\nThe ability of GSK3 inhibition to enhance cytotoxicity of NK cells isolated directly from donors was assessed using in vitro killing assays. […] depleted PBMC population was treated overnight with 10 ng/mL IL-15 only (primed), or a 7 day culture combination of 10 ng/mL IL-15 and 5 μM CHIR99021. The target cells for the killing assays included K562 cells, CD20+ Raji cells, HER2+ SKOV3 cells and HER2+A549 cells. The E:T (Effector:Target) ratio applied to each assay ranged from 0.1, 0.5, 1, 5 to 10. After the target cells were incubated with the differently treated NK cells for 4 hours, the respective percentage of specific killing (target cell lysis) was calculated. […] Raji cells are less prone to NK mediated cytotoxicity.\n(§2) The ability of STING agonist to enhance cytotoxicity of GSK3i multiday modulated NK cells was assessed using in vitro killing assays. […]"}, "KG-1 cells": {"tested_on": "KG-1 cells", "test": "NK cell cytotoxicity assay, KG-1 target cells", "format": "cell-based, human", "details": "1 μM STING agonist added to 7 day 10 ng/mL IL-15 + 5 μM CHIR99021 culture; 4 hours", "description": "as §1, §2"}, "Nalm6 cells": {"tested_on": "Nalm6 cells", "test": "NK cell cytotoxicity assay, Nalm6 target cells", "format": "cell-based, human", "details": "1 μM STING agonist added to 7 day 10 ng/mL IL-15 + 5 μM CHIR99021 culture; 4 hours", "description": "as §1, §2"}, "NK cells": {"tested_on": "NK cells", "test": "7 day NK culture with IL15, GSK3i and/or STING agonist: phenotype by flow cytometry", "format": "cell-based, human", "description": "CD3/CD19 depleted PBMC were cultured for 7 days in the presence of 10 ng/ml IL15 and (1) DMSO (vehicle); (2) […] GSK3i (CHIR99021); (3) 1 μM STING agonist (ML RR-S2 CDA); or (4) […] GSK3i+1 μM STING agonist. On day 7, NK cell function and phenotype was assessed by intracellular cytokine staining, cytotoxicity assays, and flow cytometry. […] The frequency of CD107a+ NK cells after incubation with K562 cells was increased for cells cultured for 7 days with IL-15+GSK3i+STING agonist compared to cells cultured with IL-15+GSK3i only (FIG. 16C). Increased cell surface CD107a expression is associated with enhanced degranulation and cytotoxic potential of NK cells in the presence of STING agonist in combination with GSK3i.\nNatural Killer (NK) cells recognize and destroy tumors and virus-infected cells in an antibody-independent manner. The regulation of NK cells is mediated by activating and inhibiting receptors on the NK cell surface. One important family of activating receptors is the natural cytotoxicity receptors (NCRs) which include NKp30, NKp44 and NKp46. The NCRs initiate tumor targeting by recognition of their specific ligands on cancer cells."}}}
{"smiles": "Nc1ncnc2c1ncn2[C@@H]1O[C@@H]2COP(O)(=S)O[C@@H]3C(O)[C@@H](COP(O)(=S)O[C@H]2[C@H]1O)O[C@H]3n1cnc2c(N)ncnc21", "note": "(stereo partly drawn) [ML RR-S2 CDA]", "values": [{"measurement": "cytotoxicity (specific killing) against K562 cells", "setting": "K562 cells", "result": "enhanced"}, {"measurement": "cytotoxicity (specific killing) against KG-1 cells", "setting": "KG-1 cells", "result": "enhanced"}, {"measurement": "cytotoxicity (specific killing) against Nalm6 cells", "setting": "Nalm6 cells", "result": "enhanced"}, {"measurement": "effect on adaptive NK phenotype and total NK number", "setting": "NK cells; 7 days, 10 ng/ml IL15, 1 μM STING agonist", "result": "limited effect"}, {"measurement": "total CD57+NK number", "setting": "NK cells; FIG. 15A", "result": "limited effect"}, {"measurement": "CD57+NKG2C+NK phenotype", "setting": "NK cells; FIG. 15B", "result": "limited effect"}]}
